From PubChem BioAssay (NCI)
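1) Cells in 96-well plates. 2) Compound, 48 h, 5 concentrations. 3) Linear interpolation between surrounding doses. 4) Unreached endpoint = highest concentration. GI50 = concentration required for 50% inhibition of growth. Definition used: TGI = concentration required for complete inhibition of growth.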

What was measured:
Assay in all cases: NCI tumour cell line growth inhibition, 48 h
[1] = tested on: A498 renal
[2] = tested on: ACHN renal
[3] = tested on: HOP-62 NSCLC
[4] = tested on: KM12 colon
[5] = tested on: MOLT-4 leukemia
[6] = tested on: NCI-H226 lung
[7] = tested on: NCI-H23 lung
[8] = tested on: RXF 393 renal
[9] = tested on: SK-OV-3 ovarian
[10] = tested on: TK-10 renal

Row | Compound | GI50 [1] [µM] | TGI [1] [µM] | GI50 [2] [µM] | TGI [2] [µM] | GI50 [3] [µM] | TGI [3] [µM] | GI50 [4] [µM] | TGI [4] [µM] | GI50 [5] [µM] | TGI [5] [µM] | GI50 [6] [µM] | TGI [6] [µM] | GI50 [7] [µM] | TGI [7] [µM] | GI50 [8] [µM] | TGI [8] [µM] | GI50 [9] [µM] | TGI [9] [µM] | GI50 [10] [µM] | TGI [10] [µM]
1 | O=c1nc2oc3ccc4ccccc4c3cc-2s1 | 0.184 | 7.86 | 38.6 | > 100 | 4.7 | > 79 | 0.961 | > 100 | 1.81 | > 100 | 17.7 | > 100 | 28.7 | > 100 | 1.83 | 21.6 | 15.1 | > 100 | > 25.4 | > 100
2 | C=C1C(=O)OC2/C=C(/C)C(OC(C)=O)CC(O)/C(C)=C\C(OC(=O)/C(C)=C\C)C12 (centres undefined) |  | > 100 |  | > 100 |  | > 100 |  | > 100 |  | > 100 |  | > 100 |  | > 100 |  | > 100 |  | > 100 |  | > 100
3 | Cc1ccc(N2C(=O)C3C=CC(n4[nH]c(=O)n(Cc5ccccc5)c4=O)CC3C2=O)cc1 (centres undefined) |  | > 100 |  | > 100 |  | > 100 |  | > 100 |  | > 100 |  | > 100 |  | > 100 |  | > 100 |  | > 100 |  | > 100
4 | CS[C@]12C(=O)C[C@@]3(C)[C@@H](CC[C@]3(O)C(=O)CO)[C@@H]1CCC1=CC(=O)CC[C@@]12C |  | > 100 |  | > 100 |  | > 100 |  | > 100 |  | > 100 |  | > 100 |  | > 100 |  | > 100 |  | > 100 |  | > 100
5 | CCc1cccc(C)c1NC(=O)C(=O)Cc1nc2ccccc2s1 |  | > 100 |  | > 100 |  |  |  | > 100 |  | > 100 |  | > 100 |  | > 100 |  | > 100 |  | > 100 |  | > 100
6 | O=S1(=O)OCCOS(=O)(=O)C1Cc1ccccc1 |  | > 100 |  | > 100 |  | > 100 |  | > 100 |  | > 100 |  | > 100 |  | > 100 |  | > 100 |  | > 100 |  | > 100
7 | COC(=O)C1=C(c2cc(OC)c(OC)c(OC)c2)OC(c2ccc(OC)c(OC)c2)C1 (centres undefined) |  | 69.3 |  | > 100 |  | > 100 |  | > 100 |  | 51.2 |  | > 100 |  | > 100 |  | > 100 |  | > 100 |  | > 100
8 | CC(=O)C1C(=O)C(=O)N(c2ccccc2C(C)C)C1=O (centres undefined) |  | > 100 |  | > 100 |  | > 100 |  | > 100 |  | > 100 |  | > 100 |  | > 100 |  | > 100 |  | > 100 |  | > 100
9 | C/C=C(\C)C(=O)O[C@H]1C=CC(=O)O[C@@H]1CC[C@H](O)[C@H](C)O | > 100 | > 100 | 33.4 | > 92.8 | > 100 | > 100 | 48.2 | > 100 | 1.99 | > 100 | 47.4 | > 100 | 69.1 | > 100 | 49.5 | > 88.7 | > 100 | > 100 | 50.6 | > 100
10 | Nc1nc(Nc2ccc(C3CCC(N4CCOCC4)CC3)cc2)nn1-c1ccccn1 (centres undefined) | 5 | 20.1 | 4.26 | > 100 | 3.04 | > 68.4 | 0.18 | 38 | 2.86 | 20.1 | 2.4 | > 58.4 | 2.61 | 47.7 | 2.03 | 5.77 | 18.1 | > 100 | > 21.5 | > 100
11 | O=[N+]([O-])c1cccc([As]=[As]c2cccc([N+](=O)[O-])c2)c1 (centres undefined) | 0.0835 | 0.231 | 0.111 | 0.242 | 0.159 | 0.301 | 0.172 | 0.343 | 0.104 | 0.353 | 0.143 | 0.287 | 0.182 | 0.384 | 0.0898 | 0.23 | 0.177 | 0.317 | 0.132 | 0.266
12 | O=C(/C=C/c1ccc([N+](=O)[O-])cc1)c1ccc2c3c(cccc13)CC2 | 11.6 | 43.5 | 47.9 | > 100 | 11.4 | > 81.9 | 3.1 | 14.2 | 1.27 | 11.3 | > 37.2 | > 100 | 29.1 | > 100 | 4.47 | 21.3 | 33.1 | > 91.3 | 31.4 | > 75
